# Tested on: NCI-H1618 multicellular tumor spheroid viability
# Assay: Anticancer human tumor NCI-H1618 cell line growth inhibition;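 further: spheroids exposed to agents for 7 days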
# Conditions: for IC50: curve of first compound; for viability, T/C: stronger effect = lower value
# In short: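 Single agents and combinations were tested on spheroids built from tumor cells plus HUVEC and hMSC, at half-log dilutions starting at or near clinical Cmax, else 10 microM; final DMSO 0.25% (v/v).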
# [1] = second compound 0.003 µM, first compound 0.0316 µM
# [2] = second compound 0.003 µM, first compound 0.1 µM
# [3] = second compound 0.003 µM, first compound 0.316 µM
# [4] = second compound 0.003 µM, first compound 1 µM
# [5] = second compound 0.003 µM, first compound 3.16 µM
# [6] = second compound 0.003 µM, first compound 10 µM
# [7] = second compound 0.00949 µM, first compound 0.0316 µM
# [8] = second compound 0.00949 µM, first compound 0.1 µM
# [9] = second compound 0.00949 µM, first compound 0.316 µM
# [10] = second compound 0.00949 µM, first compound 1 µM
# [11] = second compound 0.00949 µM, first compound 3.16 µM
# [12] = second compound 0.00949 µM, first compound 10 µM
# [13] = second compound 0.03 µM, first compound 0.0316 µM
# [14] = second compound 0.03 µM, first compound 0.1 µM
# [15] = second compound 0.03 µM, first compound 0.316 µM
# [16] = second compound 0.03 µM, first compound 1 µM
# [17] = second compound 0.03 µM, first compound 3.16 µM
# [18] = second compound 0.03 µM, first compound 10 µM
# [19] = second compound 0.0949 µM, first compound 0.0316 µM
# [20] = second compound 0.0949 µM, first compound 0.1 µM
# [21] = second compound 0.0949 µM, first compound 0.316 µM
# [22] = second compound 0.0949 µM, first compound 1 µM
# [23] = second compound 0.0949 µM, first compound 3.16 µM
# [24] = second compound 0.0949 µM, first compound 10 µM
# [25] = second compound 0.3 µM, first compound 0.0316 µM
# [26] = second compound 0.3 µM, first compound 0.1 µM
# [27] = second compound 0.3 µM, first compound 0.316 µM
# [28] = second compound 0.3 µM, first compound 1 µM
# [29] = second compound 0.3 µM, first compound 3.16 µM
# [30] = second compound 0.3 µM, first compound 10 µM
Structure (SMILES),IC50 (second compound 0.003 µM) [nM],IC50 (second compound 0.00949 µM) [nM],IC50 (second compound 0.03 µM) [nM],IC50 (second compound 0.0949 µM) [nM],IC50 (second compound 0.3 µM) [nM],"viability, T/C [1] [%]","viability, T/C [2] [%]","viability, T/C [3] [%]","viability, T/C [4] [%]","viability, T/C [5] [%]","viability, T/C [6] [%]","viability, T/C [7] [%]","viability, T/C [8] [%]","viability, T/C [9] [%]","viability, T/C [10] [%]","viability, T/C [11] [%]","viability, T/C [12] [%]","viability, T/C [13] [%]","viability, T/C [14] [%]","viability, T/C [15] [%]",other results
CC(C)n1c(=O)n(C)c2cnc3cc(F)c(-c4ccc(OCCCN5CCCCC5)nc4)cc3c21 + CC[C@@]1(O)C(=O)OCc2c1cc1n(c2=O)Cc2cc3c(CN(C)C)c(O)ccc3nc2-1,> 10000,< 31.6,< 31.6,< 31.6,< 31.6,56.8,51.4,51.9,66.7,72.7,38.1,7.93,4.31,8.14,10.5,12.8,14.4,4.99,4.95,4.02,"viability, T/C [16]: 2.3%; viability, T/C [17]: 2.79%; viability, T/C [18]: 1.82%; viability, T/C [19]: 4.98%; viability, T/C [20]: 3.54%; viability, T/C [21]: 8.33%; viability, T/C [22]: 4.32%; viability, T/C [23]: 7.17%; viability, T/C [24]: 4.95%; viability, T/C [25]: 4.62%; viability, T/C [26]: 4.88%; viability, T/C [27]: 4.27%; viability, T/C [28]: 4.09%; viability, T/C [29]: 5.96%; viability, T/C [30]: 6.01%"
COc1ccc([C@@H](O)c2cc(-c3ncnc4cc(N5CCOCC5)ccc34)c(F)cc2Cl)nn1 + CC[C@@]1(O)C(=O)OCc2c1cc1n(c2=O)Cc2cc3c(CN(C)C)c(O)ccc3nc2-1,2580,< 31.6,< 31.6,< 31.6,< 31.6,98.9,71.7,95.3,77,44.2,14.9,42.3,27.2,54,48.5,36,11.8,2.44,3.37,3.22,"viability, T/C [16]: 2.13%; viability, T/C [17]: 2.99%; viability, T/C [18]: 0.99%; viability, T/C [19]: 4.05%; viability, T/C [20]: 2.6%; viability, T/C [21]: 6.24%; viability, T/C [22]: 2.56%; viability, T/C [23]: 1.11%; viability, T/C [24]: 1.58%; viability, T/C [25]: 2.38%; viability, T/C [26]: 2.02%; viability, T/C [27]: 2.24%; viability, T/C [28]: 2.64%; viability, T/C [29]: 1.97%; viability, T/C [30]: 0.5%"

# From PubChem BioAssay AID1845206 (Molecular Pharmacology Branch, DTP, NCI, 2023)
